Experimental data taken from patent publication US12480137B2, “Plants having increased tolerance to herbicides” (BASF SE, priority 2014, dated 2025).

Tests used:
Type in all cases: in vivo, Arabidopsis thaliana
[1] = system: Arabidopsis mutant line Cesa3_S983F; assay: Growth inhibition of Arabidopsis lines in 48-well plates, tolerance factor from IC50; settings: growth inhibition seven to ten days after seeding
Text: (§1) For selection of cellulose biosynthesis inhibitor resistant plants EMS mutagenized seed populations of Arabidopsis thaliana are used. EMS mutagenized seed populations are either bought from Lehle Seeds (1102 South Industrial Blvd. Suite D, Round Rock, Texas USA) or are generated as described elsewhere (Heim D R, et. al. (1989) Plant Physiol. 90: 146-150). Causative mutations in CESA wildtype sequences (e.g. SEQ ID NO: 1 or 3) are identified as described by Scheible W R et. al. (2001, Proc. Natl. Acad. of Sci. 98: 10079-10084), McCourt et. al. (WO2013/142968) or with the use of next generation sequencing methods as described by Austin R S, et. al. (2011) Plant Journal 67: 715-725.
(§2) Selected Arabidopsis thaliana lines were assayed for improved resistance to azines like 6-cyclopentyl-N4-(2,3,4,5,6-pentafluorophenyl)-1,3,5-triazine-2,4-diamine; 6-(1-fluoro-1-methyl-ethyl)-N4-(2,3,4,5,6-pentafluorophenyl)-1,3,5-triazine-2,4-diamine; 6-cyclohexyl-N2-(2,3,4,5,6-pentafluorophenyl)-1,3,5-triazine-2,4-diamine; 6-(2,6-difluorophenyl)-N2-(2,3,5,6-tetrafluorophenyl)-1,3,5-triazine-2,4-diamine; N2-(4-chloro-3,5,6-trifluoro-2-pyridyl)-6-(1-fluoro-1-methyl-ethyl)-1,3,5-triazine-2,4-diamine in 48-well plates. Therefore, M2 or M3 seeds are surface sterilized by stirring for 5 min in ethanol+water (70+30 by volume), rinsing one time with ethanol+water (70+30 by volume) and two times with sterile, deionized water. The seeds are resuspended in 0.1% agar dissolved in water (w/v) Four to five seeds per well are plated on solid nutrient medium consisting of half-strength murashige skoog nutrient solution, pH 5.8 (Murashige and Skoog (1962) Physiologia Plantarum 15: 473-497). Compounds are dissolved in dimethylsulfoxid (DMSO) and added to the medium prior solidification (final DMSO concentration 0.1%). Multi well plates are incubated in a growth chamber at 22° C., 75% relative humidity and 110 μmol Phot*m^−2*s^−1 with 14:10 h light:dark photoperiod. Growth inhibition is evaluated seven to ten days after seeding in comparison to wild type plants. Tolerance factors are calculated based on IC50 values of growth inhibition of transformed versus non-transformed Arabidopsis plants (Table 3).

[2] = system: Arabidopsis mutant line Cesa3_S1037F; assay: as above; settings: growth inhibition seven to ten days after seeding
Text: as §1, §2

[3] = system: Arabidopsis mutant line Cesa1_G1013R; assay: as above; settings: growth inhibition seven to ten days after seeding
Text: as §1, §2

[4] = system: Arabidopsis mutant line Cesa1_P1010L; assay: as above; settings: growth inhibition seven to ten days after seeding
Text: as §1, §2

[5] = system: Arabidopsis mutant line Cesa1_G1009D; assay: as above; settings: growth inhibition seven to ten days after seeding
Text: as §1, §2

[6] = system: Arabidopsis mutant line Cesa3_S1040L; assay: as above; settings: growth inhibition seven to ten days after seeding
Text: as §1, §2

[7] = system: wildtype Arabidopsis plants; assay: as above; settings: growth inhibition seven to ten days after seeding
Text: as §1, §2

[8] = system: Cesa1_G1009D, fpx2-3 mutant line; assay: Greenhouse phytotox, pre-emergent treatment
Method: (§3) Additionally, M2 or M3 Arabidopsis plants are tested for improved tolerance to cellulose biosynthesis-inhibiting herbicides in greenhouse studies (e. g. with the following cellulose biosynthesis-inhibiting herbicides: 6-cyclopentyl-N4-(2,3,4,5,6-pentafluorophenyl)-1,3,5-triazine-2,4-diamine; 6-(1-fluoro-1-methyl-ethyl)-N4-(2,3,4,5,6-pentafluorophenyl)-1,3,5-triazine-2,4-diamine; N4-(4-chloro-3,5,6-trifluoro-2-pyridyl)-6-(1-fluoro-1-methyl-ethyl)-1,3,5-triazine-2,4-diamine; 6-(2,6-difluorophenyl)-N4-(2,3,5,6-tetrafluorophenyl)-1,3,5-triazine-2,4-diamine; N4-(4-bromo-2,3,5,6-tetrafluoro-phenyl)-6-(1-fluoro-1-methyl-ethyl)-1,3,5-triazine-2,4-diamine.

[9] = system: Cesa1_P1010L, fpx2-2 mutant line; assay: Greenhouse phytotox, pre-emergent treatment
Method: as §3

[10] = system: Cesa3_S1037F, fpx1-2 mutant line; assay: Greenhouse phytotox, pre-emergent treatment
Method: as §3

[11] = system: Cesa3_S1040L, fpx1-1 mutant line; assay: Greenhouse phytotox, pre-emergent treatment
Method: as §3

[12] = system: Cesa1_G1013R, fpx2-1 mutant line; assay: Greenhouse phytotox, pre-emergent treatment
Method: as §3

A. thaliana WT L. erecta = assay: Greenhouse phytotox, pre-emergent treatment
Method: as §3

[13] = system: Cesa3_S983F, fpx1-3 mutant line; assay: Greenhouse phytotox, pre-emergent treatment
Method: as §3

## CC(C)(F)c1nc(N)nc(Nc2nc(F)c(F)c(Cl)c2F)n1 [N2-(4-chloro-3,5,6-trifluoro-2-pyridyl)-6-(1-fluoro-1-methyl-ethyl)-1,3,5-triazine-2,4-diamine]
[1]
  Relative tolerance rate (wildtype = 1.0): 4
[2]
  Relative tolerance rate (wildtype = 1.0): 10
[3]
  Relative tolerance rate (wildtype = 1.0): 10
[4]
  Relative tolerance rate (wildtype = 1.0): 1
[5]
  Relative tolerance rate (wildtype = 1.0): 1
[6]
  Relative tolerance rate (wildtype = 1.0): 4
[7]
  Relative tolerance rate (wildtype = 1.0): 1
[8]; 0.0625 g ai/ha
  Phytotox value on a scale from 0-100 (100 is 100% damage): 30
[8]; 0.25 g ai/ha
  Phytotox value on a scale from 0-100 (100 is 100% damage): 43
[8]; 0.98 g ai/ha
  Phytotox value on a scale from 0-100 (100 is 100% damage): 93
[8]; 3.91 g ai/ha
  Phytotox value on a scale from 0-100 (100 is 100% damage): 99
[9]; 0.0625 g ai/ha
  Phytotox value on a scale from 0-100 (100 is 100% damage): 50
[9]; 0.25 g ai/ha
  Phytotox value on a scale from 0-100 (100 is 100% damage): 25
[9]; 0.98 g ai/ha
  Phytotox value on a scale from 0-100 (100 is 100% damage): 78
[9]; 3.91 g ai/ha
  Phytotox value on a scale from 0-100 (100 is 100% damage): 98
[10]; 0.0625 g ai/ha
  Phytotox value on a scale from 0-100 (100 is 100% damage): 5
[10]; 0.25 g ai/ha
  Phytotox value on a scale from 0-100 (100 is 100% damage): 15
[10]; 0.98 g ai/ha
  Phytotox value on a scale from 0-100 (100 is 100% damage): 25
[10]; 3.91 g ai/ha
  Phytotox value on a scale from 0-100 (100 is 100% damage): 25
[11]; 0.0625 g ai/ha
  Phytotox value on a scale from 0-100 (100 is 100% damage): 13
[11]; 0.25 g ai/ha
  Phytotox value on a scale from 0-100 (100 is 100% damage): 15
[11]; 0.98 g ai/ha
  Phytotox value on a scale from 0-100 (100 is 100% damage): 78
[11]; 3.91 g ai/ha
  Phytotox value on a scale from 0-100 (100 is 100% damage): 53
[12]; 0.0625 g ai/ha
  Phytotox value on a scale from 0-100 (100 is 100% damage): 40
[12]; 0.25 g ai/ha
  Phytotox value on a scale from 0-100 (100 is 100% damage): 50
[12]; 0.98 g ai/ha
  Phytotox value on a scale from 0-100 (100 is 100% damage): 70
[12]; 3.91 g ai/ha
  Phytotox value on a scale from 0-100 (100 is 100% damage): 80
A. thaliana WT L. erecta; 0.0625 g ai/ha
  Phytotox value on a scale from 0-100 (100 is 100% damage): 45
A. thaliana WT L. erecta; 0.25 g ai/ha
  Phytotox value on a scale from 0-100 (100 is 100% damage): 60
A. thaliana WT L. erecta; 0.98 g ai/ha
  Phytotox value on a scale from 0-100 (100 is 100% damage): 83
A. thaliana WT L. erecta; 3.91 g ai/ha
  Phytotox value on a scale from 0-100 (100 is 100% damage): 99
[13]; 0.0625 g ai/ha
  Phytotox value on a scale from 0-100 (100 is 100% damage): 23
[13]; 0.25 g ai/ha
  Phytotox value on a scale from 0-100 (100 is 100% damage): 55
[13]; 0.98 g ai/ha
  Phytotox value on a scale from 0-100 (100 is 100% damage): 48
[13]; 3.91 g ai/ha
  Phytotox value on a scale from 0-100 (100 is 100% damage): 13
